Measurements published in patent publication US20200289522A1 (Shionogi & Co., Ltd., priority 2019, published 2020).
Where two headings read alike, the source gives them in different places.

Tests used:
[1] = Plasma concentration after oral administration of prodrug Compound II-6 to rats under non-fasting conditions; format: in vivo
Excerpt: FIGS. 1 and 2 show a result of measuring the plasma concentration of Compound III and
Compound II-6, respectively, after oral administration of prodrug Compound II-6 to rats under non-fasting conditions.

type B influenza virus = format: in vivo, human; conditions: for median time to improvement of influenza symptoms: BXM single dose 40/80 mg, oseltamivir 75 mg twice daily for 5 days
influenza virus = format: in vivo, human

COC(=O)OCOc1c2n(ccc1=O)N([C@@H]1c3ccccc3SCc3c1ccc(F)c3F)[C@@H]1COCCN1C2=O [II-6, Baloxavir marboxil]
concentration of Compound II-6 in plasma ([1]; non-fasting, oral II-6 0.3, 1, 3 and 10 mg/kg, all time points 0.25 h to 24 h, below limit of quantification): < 0.500 ng/mL | conversion of prodrug to Compound III in vivo after administration ([1]; oral administration): metabolized promptly to Compound III

CCOC(=O)C1=C[C@@H](OC(CC)CC)[C@H](NC(C)=O)[C@@H](N)C1 [oseltamivir, reference compound]
median time to improvement of influenza symptoms (type B influenza virus; patients infected with type B influenza virus): 101.6 h

Baloxavir marboxil [II-6]
primary endpoint (time to improvement of influenza symptoms) compared with placebo (influenza virus; BXM 40 or 80 mg single oral dose): statistically significant improvement | change from baseline in an influenza virus titer [log 10(TCID50/mL)] by time (influenza virus; by day 2, vs placebo and oseltamivir): statistically significantly superior to placebo and oseltamivir | Difference between BXM and placebo in Time to Improvement of Influenza Symptoms (influenza virus; difference of medians, generalized Wilcoxon test p-value <0.0001): −29.1 | Time to Improvement of Influenza Symptoms (influenza virus; median, BXM 40/80 mg single oral dose by body weight, N = 385, ITTI population): 73.2 | incidence of influenza-related complication: bronchitis (influenza virus; vs placebo): statistically signicantly superior to placebo | incidence of influenza-related complication: sinusitis (influenza virus; vs placebo): statistically signicantly superior to placebo | time to cessation of viral shedding by a virus titer (influenza virus; vs placebo and oseltamivir): statistically significantly superior to placebo and oseltamivir | incidence of influenza-related complications, any complications (influenza virus; vs placebo, Fisher's exact test): statistically significantly superior to placebo | median time to improvement of influenza symptoms (type B influenza virus; […]): 74.6 h | change from baseline in an influenza virus titer [log 10(TCID50/mL)] by time, type B virus (type B influenza virus; […], by day 2, vs placebo and oseltamivir): statistically significantly superior to placebo and oseltamivir | median difference in time to improvement of influenza symptoms, BXM vs placebo (type B influenza virus; type B influenza virus, generalized Wilcoxon test p-value=0.0138): -26.0 h | median difference in time to improvement of influenza symptoms, BXM vs oseltamivir (type B influenza virus; type B influenza virus, generalized Wilcoxon test p-value=0.0251): -27.1 h
